Data reported in the NIST ThermoML archive (doi:10.1016/j.fluid.2006.05.027).
± gives the expanded uncertainty stated by the source.

Conditions: 298.15 K, Liquid, Vibrating tube method

mass density (7640 kPa): 844 ± 0.7 kg/m3 | mass density (10000 kPa): 845.6 ± 0.7 kg/m3
Compound: C=C(C)C1CC=C(C)CC1 (configuration not stated) [1-methyl-4-(1-methylethenyl)cyclohexene]
